Reference: PubChem BioAssay AID1963842 (Molecular Pharmacology Branch, DTP, NCI, 2024)

System: 677734-321-R-J1-PDC complex spheroid viability
Test: Anticancer human tumor 677734-321-R-J1-PDC patient-derived soft tissue sarcoma cell line growth inhibition [POLQ]
Conditions: for IC50: curve of first compound; for viability, T/C: stronger effect = lower value
Experimental: Multicellular complex tumor spheroid response to Polymerase (POL) inhibitors (novobiocin, ART-558, RP6685) in combination with a variety of drugs and investigational agents in selected tumor cell lines
The POL inhibitors (novobiocin, ART-558, and RP6685) were evaluated both individually and in combination with standard of care and investigational anticancer small molecules within a complex spheroid model of solid tumors. . Complex spheroids include a stromal component modeled by human endothelial cells (HUVEC) and fibroblasts modeled by human mesenchymal stem cells (MSCs). The concentration ranges selected for each drug and investigational agent were based upon clinically achievable concentrations if the clinical Cmax of the agent was known.
Compounds. The drugs and investigational agents: novobiocin (NSC847541), ART-558 (NSC835418), RP-6685 (NSC848927), peposertib (NSC802822), ceralasertib (NSC780249), elimusertib (NSC800525), camonsertib (NSC841442), AZD-1390 (NSC803789), olaparib (NSC753686), talazoparib (NSC767125), rucaparib (NSC756644), sotorasib (NSC818433), MRTX-1133 (NSC836407), SN-38 (NSC673596), topotecan (NSC609699), epotoside (NSC141540), doxorubicin (NSC123127), gemcitabine (NSC613327), 5-fluorouracil (NSC19893), paclitaxel (NSC125973), vemurafenib (NSC761431), MSA-2 (NSC828583), SN-011 (NSC837082), adavosertib (NSC754352), prexasertib (NSC758257), carboplatin (NSC241240) and oxaliplatin (NSC266046), were obtained from the National Cancer Institute (NCI) Developmental Therapeutics Program Chemical Repository (21). The FDA-approved anticancer drug set is available from the Developmental Therapeutics Program at https://dtp.cancer.gov/organization/dscb/obtaining/. […] The stock solutions were prepared in dimethyl sulfoxide (DMSO, Sigma-Aldrich, St. Louis, MO, cat. D2650), except for the platinum compounds which were prepared in saline (Quality Biological, Gaithersburg, MD, cat. 114-055-101), at 800-fold the tested concentration and stored at -70 degrees C prior to their use. All drugs and investigational agents were tested over a range starting from a high concentration at or near the clinical Cmax and decreasing in half-log increments. If the clinical Cmax for an agent had not been determined, the highest concentration tested was 10 microM, except for SN-38, which was tested at a high concentration of 1 microM.
Cell Culture. All cells were maintained in an incubator at 37 degrees C and 5% CO2 with 95% humidity. The PDC lines were cultured according to standard operating procedures established by the NCI PDMR (https://pdmr.cancer.gov). Table 3 of the manuscript, lists the cell lines along with the number of the three cell types plated to form the mct-spheroids and media for tumor cell growth. After thawing, all PDC lines, except 997537-175-T-J1-PDC and 415267-285-R-J2-PDC, were cultured in Matrigel-coated flasks prepared with a working solution of 1X Ham's F-12 nutrient mix, without supplementation (Thermo Fisher Scientific, cat. 11765054), 100 U/mL penicillin-streptomycin (Thermo Fisher Scientific, cat. 15140122), and 2.5% Matrigel (Corning Inc., Corning, NY, cat. 354248) for the first three passages. The two PDC lines 997537-175-T-J1-PDC and 415267-285-R-J2-PDC were cultured on uncoated flasks. The 857933-349-R-J2-PDC line was cultured in 6C/Colon 1B media containing advanced DMEM/F-12 (Thermo Fisher Scientific, cat. 12634028), 10 mM HEPES (Thermo Fisher Scientific, cat. 15630080), 1X GlutaMAX supplement (Thermo Fisher Scientific, cat. 35050061), 0.1 mg/mL primocin (InvivoGen, San Diego, CA, cat. ant-pm-2), 10% defined fetal bovine serum, heat inactivated (HyClone Laboratories Inc., Logan, UT, cat. SH30070.03HI), 50% L-WRN conditioned media (ATCC, cat. CRL-3276), 1.25 mM N-Acetyl-L-cysteine (Sigma-Aldrich, cat. A9165), 10 mM nicotinamide (Sigma-Aldrich, cat. N0636), 1X B-27 supplement (Thermo Fisher Scientific, cat. 17504044), 1X N-2 supplement (Thermo Fisher Scientific, cat. […]

[1] = second compound 0.0316 µM, first compound 0.0316 µM
[2] = second compound 0.0316 µM, first compound 0.1 µM
[3] = second compound 0.0316 µM, first compound 0.316 µM
[4] = second compound 0.0316 µM, first compound 1 µM
[5] = second compound 0.0316 µM, first compound 3.16 µM
[6] = second compound 0.0316 µM, first compound 10 µM
[7] = second compound 0.1 µM, first compound 0.0316 µM
[8] = second compound 0.1 µM, first compound 0.1 µM
[9] = second compound 0.1 µM, first compound 0.316 µM
[10] = second compound 0.1 µM, first compound 1 µM
[11] = second compound 0.1 µM, first compound 3.16 µM
[12] = second compound 0.1 µM, first compound 10 µM
[13] = second compound 0.316 µM, first compound 0.0316 µM
[14] = second compound 0.316 µM, first compound 0.1 µM
[15] = second compound 0.316 µM, first compound 0.316 µM
[16] = second compound 0.316 µM, first compound 1 µM
[17] = second compound 0.316 µM, first compound 3.16 µM
[18] = second compound 0.316 µM, first compound 10 µM
[19] = second compound 1 µM, first compound 0.0316 µM
[20] = second compound 1 µM, first compound 0.1 µM
[21] = second compound 1 µM, first compound 0.316 µM
[22] = second compound 1 µM, first compound 1 µM
[23] = second compound 1 µM, first compound 3.16 µM
[24] = second compound 1 µM, first compound 10 µM
[25] = second compound 3.16 µM, first compound 0.0316 µM
[26] = second compound 3.16 µM, first compound 0.1 µM
[27] = second compound 3.16 µM, first compound 0.316 µM
[28] = second compound 3.16 µM, first compound 1 µM
[29] = second compound 3.16 µM, first compound 3.16 µM
[30] = second compound 3.16 µM, first compound 10 µM
[31] = second compound 10 µM, first compound 0.0316 µM
[32] = second compound 10 µM, first compound 0.1 µM
[33] = second compound 10 µM, first compound 0.316 µM
[34] = second compound 10 µM, first compound 1 µM
[35] = second compound 10 µM, first compound 3.16 µM
[36] = second compound 10 µM, first compound 10 µM
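Further: spheroids exposed to compounds for one week.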
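Wherever viability, T/C is given: 100% = vehicle DMSO treated spheroids.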

`CCCS(=O)(=O)Nc1ccc(F)c(C(=O)c2c[nH]c3ncc(-c4ccc(Cl)cc4)cc23)c1F` + Cc1cccc(N(C)C(=O)C2C(O)CCN2c2nc(C)cc(C(F)(F)F)c2C#N)c1 showed an IC50 (second compound 0.0316 µM) of 4250 nM, an IC50 (second compound 0.1 µM) of 3820 nM and an IC50 (second compound 0.316 µM) of 3990 nM. The IC50 (second compound 1 µM) was 3120 nM, the IC50 (second compound 3.16 µM) was 2920 nM and the IC50 (second compound 10 µM) was 2000 nM. It also gave a viability, T/C [1] of 104%, a viability, T/C [2] of 105% and a viability, T/C [3] of 108%. The viability, T/C [4] was 99.8%, the viability, T/C [5] was 65.3% and the viability, T/C [6] was 5.8%. For the same compound, the viability, T/C [7] was 94.5%, the viability, T/C [8] was 87.3% and the viability, T/C [9] was 100%. The viability, T/C [10] was 86.4%, the viability, T/C [11] was 59.1% and the viability, T/C [12] was 4.58%. It also gave a viability, T/C [13] of 90.7%, a viability, T/C [14] of 101% and a viability, T/C [15] of 89.1%. For the same compound, the viability, T/C [16] was 96%, the viability, T/C [17] was 61.9% and the viability, T/C [18] was 3.41%. The viability, T/C [19] was 101%, the viability, T/C [20] was 93.2% and the viability, T/C [21] was 79.6%. It also gave a viability, T/C [22] of 108%, a viability, T/C [23] of 49.4% and a viability, T/C [24] of 2.83%. It also gave a viability, T/C [25] of 94.1%, a viability, T/C [26] of 84.6% and a viability, T/C [27] of 94%. It also gave a viability, T/C [28] of 98.4%, a viability, T/C [29] of 46.8% and a viability, T/C [30] of 2.44%. It also gave a viability, T/C [31] of 80.1%, a viability, T/C [32] of 71.7% and a viability, T/C [33] of 80.6%. For the same compound, the viability, T/C [34] was 83.3%, the viability, T/C [35] was 30.8% and the viability, T/C [36] was 0.79%.

With `COc1cc(C2c3cc4c(cc3C(OC3OC5COC(C)OC5C(O)C3O)C3COC(=O)C23)OCO4)cc(OC)c1O` (centres undefined) + Nc1ccc(C#CCN(C(=O)Cc2ncc(C(F)(F)F)cc2C(F)(F)F)c2ccc(F)cc2)nn1 the IC50 (second compound 0.0316 µM) was 417 nM, the IC50 (second compound 0.1 µM) was 482 nM and the IC50 (second compound 0.316 µM) was 315 nM. It also gave an IC50 (second compound 1 µM) of 375 nM, an IC50 (second compound 3.16 µM) of 341 nM and an IC50 (second compound 10 µM) of 219 nM. For the same compound, the viability, T/C [1] was 98.2%, the viability, T/C [2] was 93.8% and the viability, T/C [3] was 47.1%. The viability, T/C [4] was 37.2%, the viability, T/C [5] was 16.8% and the viability, T/C [6] was 10.4%. For the same compound, the viability, T/C [7] was 97.4%, the viability, T/C [8] was 92.5% and the viability, T/C [9] was 45.8%. For the same compound, the viability, T/C [10] was 46%, the viability, T/C [11] was 11.4% and the viability, T/C [12] was 8.28%. For the same compound, the viability, T/C [13] was 122%, the viability, T/C [14] was 102% and the viability, T/C [15] was 45%. For the same compound, the viability, T/C [16] was 29.6%, the viability, T/C [17] was 12.6% and the viability, T/C [18] was 10.6%. The viability, T/C [19] was 111%, the viability, T/C [20] was 75.3% and the viability, T/C [21] was 54%. The viability, T/C [22] was 36.2%, the viability, T/C [23] was 15.4% and the viability, T/C [24] was 8.43%. The viability, T/C [25] was 101%, the viability, T/C [26] was 89.2% and the viability, T/C [27] was 41.8%. For the same compound, the viability, T/C [28] was 36.6%, the viability, T/C [29] was 12.5% and the viability, T/C [30] was 10%. For the same compound, the viability, T/C [31] was 108%, the viability, T/C [32] was 72.6% and the viability, T/C [33] was 31%. It also gave a viability, T/C [34] of 35.5%, a viability, T/C [35] of 12.5% and a viability, T/C [36] of 8.79%.
